From US10258033B2 (Eden Research PLC, priority 2005, dated 2019)

Key:
[1] = Suspension and solution of citral in water; assay type: physicochemical
Excerpt: In one embodiment the terpene component includes one or more terpenes which contain oxygen.

S. aureus = experiment: MIC of terpene emulsions and fresh or freeze-dried Baker's YP / SAF Mannan encapsulated terpenes against S. aureus; assay type: cell-based; settings: for MIC μg/ml terpene, Bakers Freeze Dried / MIC μg/ml terpene, Bakers Fresh: encapsulated in Baker's YP; for MIC μg/ml terpene, SAF Mannan Freeze Dried / MIC μg/ml terpene, SAF Mannan Fresh: encapsulated in SAF Mannan; for MIC μg/ml terpene, Emulsion: not encapsulated
Method: The results of a protocol performed to compare the MIC of fresh versus freeze dried hollow glucan particle encapsulated terpene formulations are shown below in Table 13. A simple terpene emulsion was also tested and the results are shown for comparison.

E. coli = settings: cited from earlier work
H. pylori = settings: cited from earlier work

Molecule | solution, maximum concentration [1] | stable suspension, maximum concentration [1] | stable suspension of hollow glucan particles incorporating citral ([1]; ppt citral) [ppt] | MIC μg/ml terpene, Bakers Freeze Dried (S. aureus) [μg/ml terpene] | MIC μg/ml terpene, Bakers Fresh (S. aureus) [μg/ml terpene] | MIC μg/ml terpene, SAF Mannan Freeze Dried (S. aureus) [μg/ml terpene] | MIC μg/ml terpene, SAF Mannan Fresh (S. aureus) [μg/ml terpene] | MIC μg/ml terpene, Emulsion (S. aureus) [μg/ml terpene] | concentration in growth media that reduced the concentration of E. coli (E. coli) | concentration with bactericidal effect (E. coli) [%] | concentration that inhibited the growth of H. pylori in vitro (H. pylori) [mg/L]
CC(C)=CCCC(C)=CC=O [Citral, 3,7-dimethyl-2,6-octadien-1-al] | up to 500 ppm | up to 2500 ppm | 25 | 0.05 | 0.01 | >0.03 | 0.01 | 0.94 | more than 0.01% | 0.08 | 
C=CCc1ccc(O)c(OC)c1 [Eugenol] |  |  |  | 0.05 | 0.03 | 0.05 | 0.01 | 0.12 |  |  | 
CC(C)=CCC/C(C)=C/CO [Geraniol] |  |  |  | 0.06 | 0.03 | >0.03 | 0.02 | 0.47 |  |  | 2
L-carvone |  |  |  | >0.04 | 0.1 | >0.02 | 0.01 | 3.75 |  |  | 
